# Measurements: patent publication US20230002798A1, “PROCESS FOR THE PREPARATION OF A FERMENTABLE SUGAR COMPOSITION AND THE FERMENTATION THEREOF” (WeissBioTech GmbH, priority 2019, published 2023)
# Target: Agl1 (Bifidobacterium breve, UniProt C0JP82)
# Assay: Product inhibition of pNPG hydrolysis
# Conditions: 2 mM pNPG
smiles,measurement,value
OC[C@H]1O[C@H](O[C@H]2[C@H](O)[C@@H](O)C(O)O[C@@H]2CO)[C@H](O)[C@@H](O)[C@@H]1O (mixture of isomers) [maltose],IC50 (product inhibition),100 mg/mL
